ChEMBL document CHEMBL1909046, “DrugMatrix in vitro pharmacology data”

What was measured:
[1] = biological target: T1, Adenosine receptor A3 (Homo sapiens, UniProt P0DMS8); assay type: cell membranes, CHO-K1, Membrane;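 note: radioligand binding assay with AB-MECA serving as the labeled ligand; in other assays of this panel Not Active means under 50% inhibition at 10 µM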
T1 sequence (P0DMS8 whole entry): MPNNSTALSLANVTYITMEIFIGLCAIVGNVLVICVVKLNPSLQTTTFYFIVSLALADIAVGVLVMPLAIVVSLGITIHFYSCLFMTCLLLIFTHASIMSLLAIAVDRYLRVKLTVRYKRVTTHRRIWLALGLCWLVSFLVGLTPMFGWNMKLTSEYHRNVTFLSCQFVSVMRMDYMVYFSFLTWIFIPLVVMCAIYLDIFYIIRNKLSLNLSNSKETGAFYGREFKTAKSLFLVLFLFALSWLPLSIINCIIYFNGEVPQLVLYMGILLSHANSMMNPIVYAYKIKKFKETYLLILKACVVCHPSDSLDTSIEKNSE

[2] = biological target: T2, Neuropeptide Y receptor type 2 (Homo sapiens, UniProt P49146); assay type: cell membranes, Membrane; conditions: kan-ts; note: in other assays of this panel Not Active means under 50% inhibition at 10 µM
T2 sequence (P49146 whole entry): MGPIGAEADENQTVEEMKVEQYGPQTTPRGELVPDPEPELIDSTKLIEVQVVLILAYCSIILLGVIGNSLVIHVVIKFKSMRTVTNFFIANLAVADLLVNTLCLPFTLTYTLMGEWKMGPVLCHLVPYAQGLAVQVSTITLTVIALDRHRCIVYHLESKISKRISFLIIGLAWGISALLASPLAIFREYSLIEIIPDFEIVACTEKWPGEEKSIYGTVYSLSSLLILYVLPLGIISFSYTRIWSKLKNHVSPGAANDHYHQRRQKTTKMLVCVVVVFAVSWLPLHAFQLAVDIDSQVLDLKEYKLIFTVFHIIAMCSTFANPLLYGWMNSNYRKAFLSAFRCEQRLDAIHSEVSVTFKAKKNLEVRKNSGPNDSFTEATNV

[3] = biological target: Kappa-type opioid receptor (Homo sapiens, UniProt P41145); assay: DRUGMATRIX: Opiate kappa (OP2, KOP) radioligand binding (ligand: [3H] Diprenorphine); assay type: cell membranes, HEK293, Membrane; conditions: hek293; Not Active = under 50% inhibition at 10 µM
Chain of Kappa-type opioid receptor (P41145 whole entry): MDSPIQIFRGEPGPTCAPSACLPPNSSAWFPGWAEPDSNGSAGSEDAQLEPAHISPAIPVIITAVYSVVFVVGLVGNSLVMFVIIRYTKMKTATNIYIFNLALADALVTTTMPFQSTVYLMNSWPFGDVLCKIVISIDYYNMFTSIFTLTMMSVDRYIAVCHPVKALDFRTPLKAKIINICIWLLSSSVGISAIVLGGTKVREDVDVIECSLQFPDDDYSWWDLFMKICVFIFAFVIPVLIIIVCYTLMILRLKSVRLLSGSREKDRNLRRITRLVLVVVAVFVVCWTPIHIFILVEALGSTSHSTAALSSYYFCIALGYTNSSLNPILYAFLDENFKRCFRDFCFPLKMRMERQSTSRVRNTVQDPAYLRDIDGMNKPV

[4] = DRUGMATRIX: Calcium Channel Type L, Dihydropyridine radioligand binding (ligand: [3H] Nitrendipine); assay type: cell membranes, Rattus norvegicus, Wistar, Cerebral cortex, Membrane; conditions: Not Active = under 50% inhibition at 10 µM
[5] = biological target: D(3) dopamine receptor (Homo sapiens, UniProt P35462); assay: DRUGMATRIX: Dopamine D3 radioligand binding (ligand: [3H] Spiperone); assay type: cell membranes, CHO, Membrane; conditions: cho
Chain of D(3) dopamine receptor (P35462 whole entry): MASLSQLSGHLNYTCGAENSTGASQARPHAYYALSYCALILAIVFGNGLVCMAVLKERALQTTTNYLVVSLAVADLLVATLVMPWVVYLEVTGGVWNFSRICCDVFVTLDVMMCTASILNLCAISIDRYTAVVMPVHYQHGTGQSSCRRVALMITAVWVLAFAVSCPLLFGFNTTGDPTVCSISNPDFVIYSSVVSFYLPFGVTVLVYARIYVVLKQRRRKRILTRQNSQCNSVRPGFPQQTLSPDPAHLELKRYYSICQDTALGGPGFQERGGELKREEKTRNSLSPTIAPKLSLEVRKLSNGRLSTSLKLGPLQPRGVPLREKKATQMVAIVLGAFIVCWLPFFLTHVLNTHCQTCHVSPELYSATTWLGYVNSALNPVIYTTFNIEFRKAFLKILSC

| Compound | IC50 ([1]; cho-k1) | IC50 [2] | IC50 [3] | IC50 [4] | Ki [4] | IC50 [5] | IC50 ([1]; read-out: IC50) | Ki ([1]; read-out: Ki) | IC50 ([4]; read-out: IC50) | Ki ([4]; read-out: Ki) | Ki ([1]; cho-k1) | Ki [2] | Ki [5] |
| --- | --- | --- | --- | --- | --- | --- | --- | --- | --- | --- | --- | --- | --- |
| O=C(N[C@H](CO)[C@H](O)c1ccc([N+](=O)[O-])cc1)C(Cl)Cl [CHLORAMPHENICOL] | Not Active | Not Active | Not Active | Not Active | Not Active | Not Active | – | – | – | – | – | – | – |
| Cn1c(=O)c2c(ncn2CC2OCCO2)n(C)c1=O [DOXOFYLLINE] | Not Active | Not Active | Not Active | Not Active | Not Active | Not Active | – | – | – | – | – | – | – |
| CCC1=C[C@@H]2CN(C1)Cc1c([nH]c3ccccc13)[C@@](C(=O)OC)(c1cc3c(cc1OC)N(C)[C@H]1[C@@](O)(C(=O)OC)[C@H](OC(C)=O)[C@]4(CC)C=CCN5CC[C@]31[C@@H]54)C2 [VINORELBINE] | Not Active | Not Active | Not Active | Not Active | Not Active | Not Active | – | – | – | – | – | – | – |
| CC(C(=O)O)c1cccc(C(=O)c2ccccc2)c1 (stereo not given) [KETOPROFEN] | Not Active | Not Active | Not Active | Not Active | Not Active | Not Active | – | – | – | – | – | – | – |
| O=c1ccc2ccccc2o1 [COUMARIN] | Not Active | Not Active | Not Active | Not Active | Not Active | Not Active | – | – | – | – | – | – | – |
| CC1(C)O[C@@H]2C[C@H]3[C@@H]4C[C@H](F)C5=CC(=O)C=C[C@]5(C)[C@H]4[C@@H](O)C[C@]3(C)[C@]2(C(=O)CO)O1 [FLUNISOLIDE] | Not Active | Not Active | Not Active | Not Active | Not Active | Not Active | – | – | – | – | – | – | – |
| CC1(C)O[C@@H]2C[C@H]3[C@@H]4C[C@H](F)C5=CC(=O)C=C[C@]5(C)[C@@]4(F)[C@@H](O)C[C@]3(C)[C@]2(C(=O)CO)O1 [FLUOCINOLONE ACETONIDE] | Not Active | Not Active | Not Active | Not Active | Not Active | Not Active | – | – | – | – | – | – | – |
| N=C(Nc1ccccc1)Nc1ccccc1 | Not Active | Not Active | Not Active | Not Active | Not Active | Not Active | – | – | – | – | – | – | – |
| CC[C@@H](CO)NCCN[C@@H](CC)CO [ETHAMBUTOL] | Not Active | Not Active | Not Active | Not Active | Not Active | Not Active | – | – | – | – | – | – | – |
| CN1C(=O)COc2c(C(=O)NC3CN4CCC3CC4)cc(Cl)cc21 (stereo not given) [AZASETRON] | Not Active | Not Active | Not Active | Not Active | Not Active | Not Active | – | – | – | – | – | – | – |
| O=NN(CCCl)C(=O)NCCCl [CARMUSTINE] | Not Active | Not Active | Not Active | Not Active | Not Active | Not Active | – | – | – | – | – | – | – |
| O=C(C1CCCCC1)N1CC(=O)N2CCc3ccccc3C2C1 (stereo not given) [PRAZIQUANTEL] | Not Active | Not Active | Not Active | Not Active | Not Active | Not Active | – | – | – | – | – | – | – |
| C[C@]12CC[C@@H]3c4ccc(OC(=O)c5ccccc5)cc4CC[C@H]3[C@@H]1CC[C@@H]2O [ESTRADIOL BENZOATE] | – | Not Active | Not Active | Not Active | Not Active | Not Active | 21.8 µM | 12.3 µM | – | – | – | – | – |
| C[N+](C)(C)CCO.[Cl-] [CHOLINE CHLORIDE] | Not Active | Not Active | Not Active | Not Active | Not Active | Not Active | – | – | – | – | – | – | – |
| NC(=O)NO [HYDROXYUREA] | Not Active | Not Active | Not Active | Not Active | Not Active | Not Active | – | – | – | – | – | – | – |
| C[C@@]12C(=O)OC(=O)[C@]1(C)[C@H]1CC[C@@H]2O1 [CANTHARIDIN] | Not Active | Not Active | – | Not Active | Not Active | Not Active | – | – | – | – | – | – | – |
| O=S(=O)([O-])CCS.[Na+] [MESNA] | Not Active | Not Active | Not Active | Not Active | Not Active | Not Active | – | – | – | – | – | – | – |
| CCN[C@@H]1C[C@H](N)[C@@H](O[C@H]2OC(CN)=CC[C@H]2N)[C@H](O)[C@H]1O[C@H]1OC[C@](C)(O)[C@H](NC)[C@H]1O [NETILMICIN] | Not Active | Not Active | Not Active | Not Active | Not Active | Not Active | – | – | – | – | – | – | – |

| Compound | IC50 ([1]; cho-k1) | IC50 [2] | IC50 [3] | IC50 [4] | Ki [4] | IC50 [5] | IC50 ([1]; read-out: IC50) | Ki ([1]; read-out: Ki) | IC50 ([4]; read-out: IC50) | Ki ([4]; read-out: Ki) | Ki ([1]; cho-k1) | Ki [2] | Ki [5] |
| --- | --- | --- | --- | --- | --- | --- | --- | --- | --- | --- | --- | --- | --- |
| C/C=C/C[C@@H](C)[C@@H](O)[C@H]1C(=O)N[C@@H](CC)C(=O)N(C)CC(=O)N(C)[C@@H](CC(C)C)C(=O)N[C@@H](C(C)C)C(=O)N(C)[C@@H](CC(C)C)C(=O)N[C@@H](C)C(=O)N[C@H](C)C(=O)N(C)[C@@H](CC(C)C)C(=O)N(C)[C@@H](CC(C)C)C(=O)N(C)[C@@H](C(C)C)C(=O)N1C [CYCLOSPORINE] | Not Active | Not Active | Not Active | Not Active | Not Active | Not Active | – | – | – | – | – | – | – |
| CCOC(=O)C(C)(C)Oc1ccc(Cl)cc1 [CLOFIBRATE] | Not Active | Not Active | Not Active | Not Active | Not Active | Not Active | – | – | – | – | – | – | – |
| C#C[C@]1(OC(C)=O)CC[C@H]2[C@@H]3CCC4=CC(=O)CC[C@@H]4[C@H]3CC[C@@]21C [NORETHINDRONE ACETATE] | Not Active | Not Active | Not Active | Not Active | Not Active | Not Active | – | – | – | – | – | – | – |
| COC(=O)C1=C(C)NC(C)=C(C(=O)OCC(C)C)C1c1ccccc1[N+](=O)[O-] (stereo not given) [NISOLDIPINE] | – | Not Active | Not Active | – | – | Not Active | 7.12 µM | 4.02 µM | 0.000741 µM | 0.000476 µM | – | – | – |
| CC(=O)Nc1c(I)c(NC(C)=O)c(I)c(C(=O)O)c1I [DIATRIZOIC ACID] | Not Active | Not Active | Not Active | Not Active | Not Active | Not Active | – | – | – | – | – | – | – |
| C[C@@H]1C[C@@H]([C@H](O)CC2CC(=O)NC(=O)C2)C(=O)[C@@H](C)C1 [CYCLOHEXIMIDE] | Not Active | Not Active | – | Not Active | Not Active | Not Active | – | – | – | – | – | – | – |
| Cc1cc(=O)n(-c2ccccc2)n1C [ANTIPYRINE] | Not Active | Not Active | Not Active | Not Active | Not Active | Not Active | – | – | – | – | – | – | – |
| CC1(C)O[C@@H]2C[C@H]3[C@@H]4C[C@H](F)C5=CC(=O)CC[C@]5(C)[C@H]4[C@@H](O)C[C@]3(C)[C@]2(C(=O)CO)O1 [FLURANDRENOLIDE] | Not Active | Not Active | Not Active | Not Active | Not Active | Not Active | – | – | – | – | – | – | – |
| CC(=O)OCC(=O)[C@@]1(O)CC[C@H]2[C@@H]3CCC4=CC(=O)CC[C@]4(C)[C@H]3C(=O)C[C@@]21C [CORTISONE ACETATE] | Not Active | Not Active | Not Active | Not Active | Not Active | Not Active | – | – | – | – | – | – | – |
| CCN1CC(CCN2CCOCC2)C(c2ccccc2)(c2ccccc2)C1=O (stereo not given) [DOXAPRAM] | Not Active | Not Active | Not Active | Not Active | Not Active | Not Active | – | – | – | – | – | – | – |
| NC(=O)c1cnccn1 [PYRAZINAMIDE] | Not Active | Not Active | Not Active | Not Active | Not Active | Not Active | – | – | – | – | – | – | – |
| O=C1CC[C@H](N2C(=O)c3ccccc3C2=O)C(=O)N1 | Not Active | Not Active | Not Active | Not Active | Not Active | Not Active | – | – | – | – | – | – | – |
| ClC(Cl)Cl [CHLOROFORM] | Not Active | Not Active | Not Active | Not Active | Not Active | Not Active | – | – | – | – | – | – | – |
| CC(=O)Nc1ccc(O)cc1 [ACETAMINOPHEN] | Not Active | Not Active | – | Not Active | Not Active | Not Active | – | – | – | – | – | – | – |
| COP(=O)(OC)OC=C(Cl)Cl [DICHLORVOS] | Not Active | Not Active | – | Not Active | Not Active | Not Active | – | – | – | – | – | – | – |
| CADMIUM DICHLORIDE | Not Active | Not Active | – | Not Active | Not Active | Not Active | – | – | – | – | Not Active | Not Active | Not Active |
| S=C=Nc1cccc2ccccc12 [1-NAPHTHYLISOTHIOCYANATE] | – | Not Active | – | Not Active | Not Active | Not Active | 6.1 µM | 3.45 µM | – | – | – | – | – |
